Assay: Body composition by GE Prodigy DEXA scan, Example 1
Format: in vivo, dog
Conditions: for % Fat, Mean / BMC, Mean / Lean Mass, Mean / Total Mass, Mean: Table 14; for BMC-Change / Lean Mass-Change / Total Mass-Change / BMC-Final / BMC-Initial / Lean Mass-Final / Lean Mass-Initial / Total Mass-Final / Total Mass-Initial: Table 20, mean ± SEM; for BMC-Change / Lean Mass-Change / Total Mass-Change: beginning to completion of study
Procedure: Forty Labrador Retrievers were divided into two equal groups of twenty (11 males, 9 females) based on gender, body weight (“BW”), genetics, and lean mass and fed a low L-carnitine basal diet for a 90 day feeding period. The experimental dogs were fed the low L-carnitine basal for 10 days prior to the start of the study. Twenty of the Labs received 250 mg/day of L-carnitine (batch D22312) and 3.75 g of sugar and twenty of the Labs received 4 g/d of sugar. The dogs were scanned with a GE Prodigy DEXA system immediately prior to beginning of the study and the determined lean mass was utilized as a key component for helping assort the dogs equally between the control and L-carnitine group. A serum sample was obtained from each dog to determine a baseline value for blood biomarkers that were used to evaluate muscle damage and antioxidant status. The L-carnitine and control performance dogs were put through a weekly running program consisting of running sprint type shorter runs of higher intensity twice weekly (1200 yds/session increasing to 2400 yds/session over 10 wk period) and running endurance longer runs one time per wk (increasing from 5 miles/session to 10 miles per session over a 10 wk period). Each performance dog also wore the Actical activity monitor during the last endurance run. The dogs were put through a 15 mile run that included mud, water, tall grass, and swimming. The dogs were timed when they completed the course. The dogs were encouraged by kennel staff that rode along in a 4 wheel all terrain type vehicle during all of the endurance runs. […] Immediately following the 15 mile endurance run, each dog was placed in a kennel and evaluated for recovery time for body temperature (every 15 minutes for 2 hr) and heart rate (every 2 minutes for 14 minutes). Twenty four hours after test dogs ran the last 15 endurance run, post-run serum samples were taken to evaluate biomarkers for muscle damage and antioxidant status. Each test dog was also scanned with the GE Prodigy DEXA to determine body composition change that occurred during the course of the 13 wk study. Body Scans: Each dog was scanned for body composition with a GE Prodigy Pro Fan beam instrument during the week prior to the beginning of the 90 day study and the first working day following the last endurance run. Body composition values were determined for % lean mass, % fat mass, and % bone ash for each dog. The difference in body composition was determined by comparing the beginning scan and last scan for each test dog. The final scans were completed 24 hr post run.

Question: Which results are given for `C[N+](C)(C)C[C@H](O)CC(=O)[O-]` [L-carnitine]?
Answer: Lean mass over the study (Ex.1, 250 mg/d, DEXA, initial vs final, either group): No increase in lean mass; Increase in % fat mass (Ex.1, 250 mg/d, females, beginning to end of study, vs 8.9% control females (p=0.22)): 4.2%; Increase in fat (Ex.1, 250 mg/d, females, over 90 day study, unpaired t-test (Table 20), vs 9% control females (p=0.30)): 5.8%; Fat mass at the end of the study (Ex.1, 250 mg/d, females, vs 11.1 lbs control (p=0.29)): 8.9 lbs; BMC Least Sq Mean (F, Final): 820.2 g; Fat Least Sq Mean (F, Final): 8.892 lbs; Fat Percentage Least Sq Mean (F, Final): 16.32; Lean Mass Least Sq Mean (F, Final): 45.62 lbs; Total Mass Least Sq Mean (F, Final): 54.51 lbs; BMC Least Sq Mean (F, Initial): 766.5 g; Fat Least Sq Mean (F, Initial): 5.631 lbs; Fat Percentage Least Sq Mean (F, Initial): 11.03; Lean Mass Least Sq Mean (F, Initial): 45.83 lbs; Total Mass Least Sq Mean (F, Initial): 51.14 lbs; BMC Least Sq Mean (Final): 861.6 g; Fat Least Sq Mean (Final): 8.558 lbs; Fat Percentage Least Sq Mean (Final): 14.52; Lean Mass Least Sq Mean (Final): 49.83 lbs; Total Mass Least Sq Mean (Final): 58.39 lbs; BMC Least Sq Mean (Initial): 784.2 g; Fat Least Sq Mean (Initial): 5.779 lbs; Fat Percentage Least Sq Mean (Initial): 10.31; Lean Mass Least Sq Mean (Initial): 49.87 lbs; Total Mass Least Sq Mean (Initial): 55.49 lbs; BMC Least Sq Mean (M, Final): 903 g; Fat Least Sq Mean (M, Final): 8.225 lbs; Fat Percentage Least Sq Mean (M, Final): 12.73; Lean Mass Least Sq Mean (M, Final): 54.04 lbs; Total Mass Least Sq Mean (M, Final): 62.27 lbs; BMC Least Sq Mean (M, Initial): 801.8 g; Fat Least Sq Mean (M, Initial): 5.927 lbs; Fat Percentage Least Sq Mean (M, Initial): 9.582; Lean Mass Least Sq Mean (M, Initial): 53.9 lbs; Total Mass Least Sq Mean (M, Initial): 59.83 lbs; % Fat, Mean (Sex F, Final): 16.3%; BMC, Mean (Sex F, Final): 820 g; Lean Mass, Mean (Sex F, Final): 45.6 lb; Total Mass, Mean (Sex F, Final): 54.5 lb; % Fat, Mean (Sex F, Initial): 12.1%; BMC, Mean (Sex F, Initial): 764 g; Lean Mass, Mean (Sex F, Initial): 44.7 lb; Total Mass, Mean (Sex F, Initial): 50.8 lb; % Fat, Mean (Sex M, Final): 12.7%; BMC, Mean (Sex M, Final): 903 g; Lean Mass, Mean (Sex M, Final): 54.0 lb; Total Mass, Mean (Sex M, Final): 62.3 lb; % Fat, Mean (Sex M, Initial): 9.6%; BMC, Mean (Sex M, Initial): 802 g; Lean Mass, Mean (Sex M, Initial): 53.9 lb; Total Mass, Mean (Sex M, Initial): 59.8 lb; % Fat, Mean (all dogs, Final): 14.3%; BMC, Mean (all dogs, Final): 866 g; Lean Mass, Mean (all dogs, Final): 50.3 lb; Total Mass, Mean (all dogs, Final): 58.8 lb; % Fat, Mean (all dogs, Initial): 10.6%; BMC, Mean (all dogs, Initial): 787 g; Lean Mass, Mean (all dogs, Initial): 50.3 lb; Total Mass, Mean (all dogs, Initial): 56.3 lb; BMC-Change (all dogs): 82 ± 46 n = 20 g; Lean Mass-Change (all dogs): 0.1 ± 0.3 n = 20 lb; Total Mass-Change (all dogs): 3.4 ± 0.8 n = 20 lb; BMC-Final (all dogs): 866 ± 26 n = 20 g; BMC-Initial (all dogs): 784 ± 44 n = 20 g; Lean Mass-Final (all dogs): 50.3 ± 1.5 n = 20 lb; Lean Mass-Initial (all dogs): 50.2 ± 1.5 n = 20 lb; Total Mass-Final (all dogs): 58.8 ± 1.7 n = 20 lb; Total Mass-Initial (all dogs): 55.3 ± 1.7 n = 20 lb; BMC-Change (♀): 58 ± 11 n = 9 g; Lean Mass-Change (♀): 0 ± 0.5 n = 9 lb; Total Mass-Change (♀): 4.7 ± 1.5 n = 9 lb; BMC-Final (♀): 820 ± 19 n = 9 g; BMC-Initial (♀): 762 ± 18 n = 9 g; Lean Mass-Final (♀): 45.6 ± 1.7 n = 9 lb; Lean Mass-Initial (♀): 45.7 ± 1.3 n = 9 lb; Total Mass-Final (♀): 54.5 ± 1.4 n = 9 lb; Total Mass-Initial (♀): 49.8 ± 1.1 n = 9 lb; BMC-Change (♂): 101 ± 84 n = 11 g; Lean Mass-Change (♂): 0.1 ± 0.5 n = 11 lb; Total Mass-Change (♂): 2.4 ± 0.6 n = 11 lb; BMC-Final (♂): 903 ± 42 n = 11 g; BMC-Initial (♂): 802 ± 80 n = 11 g; Lean Mass-Final (♂): 54 ± 1.7 n = 11 lb; Lean Mass-Initial (♂): 53.9 ± 1.8 n = 11 lb; Total Mass-Final (♂): 62.3 ± 2.6 n = 11 lb; Total Mass-Initial (♂): 59.8 ± 2.2 n = 11 lb; BMC Least Sq Mean (Treatment * Sex, F): 766.5 g; Fat Least Sq Mean (Treatment * Sex, F): 7.261 lbs; Fat Percentage Least Sq Mean (Treatment * Sex, F): 11.03; Lean Mass Least Sq Mean (Treatment * Sex, F): 45.83 lbs; Total Mass Least Sq Mean (Treatment * Sex, F): 51.14 lbs; BMC Least Sq Mean (Treatment * Sex, M): 801.8 g; Fat Least Sq Mean (Treatment * Sex, M): 7.076 lbs; Fat Percentage Least Sq Mean (Treatment * Sex, M): 9.582; Lean Mass Least Sq Mean (Treatment * Sex, M): 53.9 lbs; Total Mass Least Sq Mean (Treatment * Sex, M): 59.83 lbs; BMC Least Sq Mean (Treatment level, all dogs): 784.2 g; Fat Least Sq Mean (Treatment level, all dogs): 7.169 lbs; Fat Percentage Least Sq Mean (Treatment level, all dogs): 10.31; Lean Mass Least Sq Mean (Treatment level, all dogs): 49.87 lbs; Total Mass Least Sq Mean (Treatment level, all dogs): 55.49 lb; Body mineral content (BMC), mixed model Estimate, term Treatment[L-carnitine] (model term): −22.85; Body mineral content (BMC), mixed model Estimate, term Treatment[L-carnitine] * Sex[F] (model term): 37.64; Body mineral content (BMC), mixed model Estimate, term Treatment[L-carnitine] * Sex[F] * Time[Final-Initial] (model term): −17.19; Body mineral content (BMC), mixed model Estimate, term Treatment[L-carnitine] * Time[Final-Initial] (model term): 6.762; Fat mass, mixed model Estimate, term Treatment[L-carnitine] (model term): −0.2546; Fat mass, mixed model Estimate, term Treatment[L-carnitine] * Sex[F] (model term): −0.1764; Fat mass, mixed model Estimate, term Treatment[L-carnitine] * Sex[F] * Time[Initial] (model term): 0.331; Fat mass, mixed model Estimate, term Treatment[L-carnitine] * Time[Initial] (model term): 0.3408; Fat percentage, mixed model Estimate, term Treatment[L-carnitine] (model term): 0.1573; Fat percentage, mixed model Estimate, term Treatment[L-carnitine] * Sex[F] (model term): 0.281; Fat percentage, mixed model Estimate, term Treatment[L-carnitine] * Sex[F] * Time[Final-Initial] (model term): −0.9515; Fat percentage, mixed model Estimate, term Treatment[L-carnitine] * Time[Final-Initial] (model term): −0.8868; Lean mass, mixed model Estimate, term Treatment[L-carnitine] (model term): −0.3966; Lean mass, mixed model Estimate, term Treatment[L-carnitine] * Sex[F] (model term): 0.618; Lean mass, mixed model Estimate, term Treatment[L-carnitine] * Sex[F] * Time[Final-Initial] (model term): 0.1808; Lean mass, mixed model Estimate, term Treatment[L-carnitine] * Time[Final-Initial] (model term): −0.234; Total Body Mass, mixed model Estimate, term Treatment[L-carnitine] (model term): −0.3536; Total Body Mass, mixed model Estimate, term Treatment[L-carnitine] * Sex[F] (model term): 0.6569; Total Body Mass, mixed model Estimate, term Treatment[L-carnitine] * Sex[F] * Time[Final-Initial] (model term): −0.3655; Total Body Mass, mixed model Estimate, term Treatment[L-carnitine] * Time[Final-Initial] (model term): −0.8724

— patent US10016382B2, “Method for decreasing skeletal muscle damage and/or oxidative stress in mammals” (LONZA INC., priority 2014, dated 2018)
